What was measured:
Assay type in all cases: in vivo
[1] = test system: corn (Zea mays); assay: Test A pre-/postemergence plant response
Method in brief: (§1)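 Seeds were planted in blended loam soil and sand, then treated preemergence by directed soil spray. At that time, emerged plants (one- to two-leaf, 2–10 cm) received postemergence applications of the same surfactant-containing formulation. Injury was assessed visually on a 0–100 scale after approximately 10 days.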

[2] = test system: pigweed (Amaranthus retroflexus); assay: Test A pre-/postemergence plant response
Method in brief: as §1

[3] = test system: wheat (Triticum aestivum); assay: Test A pre-/postemergence plant response
Method in brief: as §1

[4] = test system: barnyardgrass (Echinochloa crus-galli); assay: Test A pre-/postemergence plant response
Method in brief: as §1

[5] = test system: large crabgrass (Digitaria sanguinalis); assay: Test A pre-/postemergence plant response
Method in brief: as §1

[6] = test system: morningglory (Ipomoea coccinea); assay: Test A pre-/postemergence plant response
Method in brief: as §1

[7] = test system: velvetleaf (Abutilon theophrasti); assay: Test A pre-/postemergence plant response
Method in brief: as §1

[8] = test system: giant foxtail (Setaria faberi); assay: Test A pre-/postemergence plant response
Method in brief: as §1

[9] = test system: surinam grass (Brachiaria decumbens); assay: Test B pre-/postemergence plant response
Source text: Seeds of plant species selected from blackgrass (Alopecurus myosuroides), downy bromegrass (Bromus tectorum), green foxtail (Setaria viridis), Italian ryegrass (Lolium multiflorum), wheat (Triticum aestivum), wild oat (Avena fatua), catchweed bedstraw (Galium aparine), bermudagrass (Cynodon dactylon), surinam grass (Brachiaria decumbens), cocklebur (Xanthium strumarium), corn (Zea mays), large crabgrass (Digitaria sanguinalis), woolly cupgrass (Eriochloa villosa), giant foxtail (Setaria faberii), goosegrass (Eleusine indica), johnsongrass (Sorghum halepense), kochia (Kochia scoparia), lambsquarters (Chenopodium album), morningglory (Ipomoea coccinea), eastern black (E.B.) nightshade (Solanum ptycanthum), yellow nutsedge (Cyperus esculentus), pigweed (Amaranthus retroflexus), common ragweed (Ambrosia elation), Russian thistle (Salsola iberica), soybean (Glycine max), common (oilseed) sunflower (Helianthus annuus), and velvetleaf (Abutilon theophrasti) were planted and treated preemergence with test chemicals formulated in a non-phytotoxic solvent mixture which included a surfactant.
At the same time, plants selected from these crop and weed species and also winter barley (Hordeum vulgare), canarygrass (Phalaris minor), chickweed (Stellaria media) and windgrass (Apera spica-venti) were treated with postemergence applications of some of the test chemicals formulated in the same manner. Plants ranged in height from 2 to 18 cm (1- to 4-leaf stage) for postemergence treatments.
Plant species in the flooded paddy test consisted of rice (Oryza sativa), umbrella sedge (Cyperus difformis), ducksalad (Heteranthera limosa) and barnyardgrass (Echinochloa crus-galli) grown to the 2-leaf stage for testing. At time of treatment, test pots were flooded to 3 cm above the soil surface, treated by application of test compounds directly to the paddy water, and then maintained at that water depth for the duration of the test. Treated plants and controls were maintained in a greenhouse for 13 to 15 days, after which time all species were compared to controls and visually evaluated. Plant response ratings, summarized in Table B, are based on a scale of 0 to 100 where 0 is no effect and 100 is complete control. A dash (-) response means no test result.

[10] = test system: windgrass (Apera spica-venti); assay: Test B postemergence plant response; settings: Postemergence
Method in brief: (§2)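 Scoring: 0 means no effect and 100 complete control, judged by eye against controls after 13–15 days under greenhouse conditions following postemergence application at 2–18 cm plant height.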

[11] = test system: chickweed (Stellaria media); assay: Test B postemergence plant response; settings: Postemergence
Method in brief: as §2

[12] = test system: canarygrass (Phalaris minor); assay: Test B postemergence plant response; settings: Postemergence
Method in brief: as §2

[13] = test system: winter barley (Hordeum vulgare); assay: Test B postemergence plant response; settings: Postemergence
Method in brief: as §2

[14] = Postemergence, 125 g ai/ha, 0 to 100 scale, 0 no effect, 100 complete control
[15] = Postemergence, 500 g ai/ha, 0 to 100 scale, 0 no effect, 100 complete control
[16] = Preemergence, 125 g ai/ha, 0 to 100 scale (0 no effect, 100 complete control)
[17] = Preemergence, 500 g ai/ha, 0 to 100 scale (0 no effect, 100 complete control)
[18] = 31 g ai/ha, scale 0 to 100, 0 no effect, 100 complete control

Cc1cc(-c2ccc(Br)cc2)nn1-c1c(OC(=O)OC(C)C)cnn(C)c1=O [Compound 6]
Plant response rating, Corn [1, 14]: 100
Plant response rating, Corn [1, 15]: 100
Plant response rating, Corn [1, 16]: 80
Plant response rating, Corn [1, 17]: 90
Plant response rating, Pigweed [2, 14]: 0
Plant response rating, Pigweed [2, 15]: 30
Plant response rating, Pigweed [2, 16]: 20
Plant response rating, Pigweed [2, 17]: 40
Plant response rating, Wheat [3, 14]: 50
Plant response rating, Wheat [3, 15]: 70
Plant response rating, Wheat [3, 16]: 80
Plant response rating, Wheat [3, 17]: 90
Plant response rating, Barnyardgrass [4, 14]: 90
Plant response rating, Barnyardgrass [4, 15]: 100
Plant response rating, Barnyardgrass [4, 16]: 90
Plant response rating, Barnyardgrass [4, 17]: 100
Plant response rating, Crabgrass, Large [5, 14]: 90
Plant response rating, Crabgrass, Large [5, 15]: 90
Plant response rating, Crabgrass, Large [5, 16]: 100
Plant response rating, Crabgrass, Large [5, 17]: 100
Plant response rating, Morningglory [6, 14]: 30
Plant response rating, Morningglory [6, 15]: 50
Plant response rating, Morningglory [6, 16]: 30
Plant response rating, Morningglory [6, 17]: 40
Plant response rating, Velvetleaf [7, 14]: 40
Plant response rating, Velvetleaf [7, 15]: 50
Plant response rating, Velvetleaf [7, 16]: 40
Plant response rating, Velvetleaf [7, 17]: 50
Plant response rating, Foxtail, Giant [8, 14]: 90
Plant response rating, Foxtail, Giant [8, 15]: 90
Plant response rating, Foxtail, Giant [8, 16]: 100
Plant response rating, Foxtail, Giant [8, 17]: 100
Plant response rating, Surinam Grass ([9]; Postemergence, 31 g ai/ha, scale 0 to 100, 0 no effect, 100 complete control): 100
Plant response rating, Surinam Grass ([9]; Postemergence, 62 g ai/ha, scale 0 to 100): 100
Plant response rating, Surinam Grass ([9]; Postemergence, 125 g ai/ha, scale 0 to 100): 100
Plant response rating, Surinam Grass ([9]; Postemergence, 250 g ai/ha, scale 0 to 100): 100
Plant response rating, Surinam Grass ([9]; Preemergence, 31 g ai/ha, 0 to 100 scale, 0 no effect, 100 complete control): 98
Plant response rating, Surinam Grass ([9]; Preemergence, 62 g ai/ha, scale 0 to 100): 98
Plant response rating, Surinam Grass ([9]; Preemergence, 125 g ai/ha, scale 0 to 100): 100
Plant response rating, Surinam Grass ([9]; Preemergence, 250 g ai/ha, scale 0 to 100): 100
Plant response rating, Windgrass [10, 18]: 90
Plant response rating, Windgrass ([10]; 62 g ai/ha, scale 0 to 100): 95
Plant response rating, Windgrass ([10]; 125 g ai/ha, scale 0 to 100): 100
Plant response rating, Windgrass ([10]; 250 g ai/ha, scale 0 to 100): 100
Plant response rating, Chickweed [11, 18]: 0
Plant response rating, Chickweed ([11]; 62 g ai/ha, scale 0 to 100): 0
Plant response rating, Chickweed ([11]; 125 g ai/ha, scale 0 to 100): 0
Plant response rating, Chickweed ([11]; 250 g ai/ha, scale 0 to 100): 0
Plant response rating, Canarygrass [12, 18]: 95
Plant response rating, Canarygrass ([12]; 62 g ai/ha, scale 0 to 100): 95
Plant response rating, Canarygrass ([12]; 125 g ai/ha, scale 0 to 100): 100
Plant response rating, Canarygrass ([12]; 250 g ai/ha, scale 0 to 100): 100
Plant response rating, Barley [13, 18]: 30
Plant response rating, Barley ([13]; 62 g ai/ha, scale 0 to 100): 30
Plant response rating, Barley ([13]; 125 g ai/ha, scale 0 to 100): 80
Plant response rating, Barley ([13]; 250 g ai/ha, scale 0 to 100): 80
